This note sets out measurements from the NIST ThermoML archive (doi:10.1021/acs.jced.8b00513).

Numbers after ± are expanded uncertainties.

For the series the following is noted: 101.33 kPa, Liquid, Vibrating tube method.

As a reminder, the mass density is the mass of a sample divided by its volume. Regarding `O` [water], the mass density (323.15 K) came to 988.035 ± 1 kg/m3; the mass density (328.15 K) was 985.693 ± 1 kg/m3; the mass density (333.15 K) is on record as 983.196 ± 0.98 kg/m3; the mass density (338.15 K) is given as 980.551 ± 0.98 kg/m3; the mass density (343.15 K) is 977.765 ± 0.98 kg/m3.
